Source: ChEMBL document CHEMBL2073979, “Molecular cloning and characterization of a new multispecific organic anion transporter from rat brain” (J Biol Chem, 1999)

Key:
[1] = molecular target: T1, Organic anion transporter 3 (Rattus norvegicus, UniProt Q9R1U7); experiment: TP_TRANSPORTER: inhibition of E1S uptake (E1S: 40 uM, DIDS: 1000 uM) in Xenopus laevis oocytes; assay type: functional, cell-based; conditions: oocyte
T1 sequence (Q9R1U7 whole entry): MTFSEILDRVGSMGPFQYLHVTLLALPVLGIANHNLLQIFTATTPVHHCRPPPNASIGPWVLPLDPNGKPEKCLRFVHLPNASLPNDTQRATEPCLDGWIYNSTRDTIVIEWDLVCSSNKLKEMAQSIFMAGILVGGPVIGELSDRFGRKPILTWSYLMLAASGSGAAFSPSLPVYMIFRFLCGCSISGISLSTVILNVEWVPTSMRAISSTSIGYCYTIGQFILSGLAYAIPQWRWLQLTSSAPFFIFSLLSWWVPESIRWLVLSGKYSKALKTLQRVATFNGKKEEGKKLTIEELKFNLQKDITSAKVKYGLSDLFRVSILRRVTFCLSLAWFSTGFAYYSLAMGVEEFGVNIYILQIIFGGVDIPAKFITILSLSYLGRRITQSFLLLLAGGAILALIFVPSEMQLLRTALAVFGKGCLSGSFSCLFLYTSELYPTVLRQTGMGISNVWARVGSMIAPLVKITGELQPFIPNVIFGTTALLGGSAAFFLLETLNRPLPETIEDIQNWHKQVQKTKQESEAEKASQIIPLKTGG

[2] = molecular target: T2, Organic anion transporter 3 (OAT3) (Rattus norvegicus, UniProt Q9R1U7); experiment: (§1) TP_TRANSPORTER: uptake in Xenopus laevis oocytes; assay type: functional, cell-based, Oocyte
T2 sequence (Q9R1U7 whole entry): T1 sequence (Q9R1U7 whole entry)

[3] = molecular target: T1, Organic anion transporter 3; experiment: TP_TRANSPORTER: inhibition of E1S uptake (E1S: 40 uM, Bumetanide: 1000 uM) in Xenopus laevis oocytes; assay type: functional, cell-based; conditions: oocyte
[4] = molecular target: T1, Organic anion transporter 3; experiment: TP_TRANSPORTER: inhibition of E1S uptake (E1S: 40 uM, Cefoperazone: 1000 uM) in Xenopus laevis oocytes; assay type: functional, cell-based; conditions: oocyte
[5] = molecular target: T1, Organic anion transporter 3; experiment: as §1; assay type: functional, cell-based, Oocyte; conditions: oocyte
[6] = molecular target: T1, Organic anion transporter 3; experiment: TP_TRANSPORTER: inhibition of E1S uptake (E1S: 40 uM, Furosemide: 1000 uM) in Xenopus laevis oocytes; assay type: functional, cell-based; conditions: oocyte
[7] = molecular target: T1, Organic anion transporter 3; experiment: TP_TRANSPORTER: inhibition of E1S uptake (E1S: 40 uM, ICG: 1000 uM) in Xenopus laevis oocytes; assay type: functional, cell-based; conditions: oocyte
[8] = molecular target: T1, Organic anion transporter 3; experiment: TP_TRANSPORTER: inhibition of E1S uptake (E1S: 40 uM, Indomethacin: 1000 uM) in Xenopus laevis oocytes; assay type: functional, cell-based; conditions: oocyte
[9] = molecular target: T1, Organic anion transporter 3; experiment: TP_TRANSPORTER: inhibition of E1S uptake (E1S: 40 uM, Malatonin: 1000 uM) in Xenopus laevis oocytes; assay type: functional, cell-based; conditions: oocyte
[10] = molecular target: T1, Organic anion transporter 3; experiment: TP_TRANSPORTER: inhibition of E1S uptake (E1S: 40 uM, MTX: 1000 uM) in Xenopus laevis oocytes; assay type: functional, cell-based; conditions: oocyte
[11] = molecular target: T1, Organic anion transporter 3; experiment: TP_TRANSPORTER: inhibition of E1S uptake (E1S: 40 uM, Ouabain: 1000 uM) in Xenopus laevis oocytes; assay type: functional, cell-based; conditions: oocyte
[12] = molecular target: T1, Organic anion transporter 3; experiment: TP_TRANSPORTER: inhibition of E1S uptake (E1S: 40 uM, Piroxicam: 1000 uM) in Xenopus laevis oocytes; assay type: functional, cell-based; conditions: oocyte
[13] = molecular target: T1, Organic anion transporter 3; experiment: TP_TRANSPORTER: inhibition of E1S uptake (E1S: 40 uM, Probenecid: 1000 uM) in Xenopus laevis oocytes; assay type: functional, cell-based; conditions: oocyte
[14] = molecular target: T1, Organic anion transporter 3; experiment: TP_TRANSPORTER: inhibition of E1S uptake (E1S: 40 uM, BSP: 1000 uM) in Xenopus laevis oocytes; assay type: functional, cell-based; conditions: oocyte
[15] = molecular target: T1, Organic anion transporter 3; experiment: TP_TRANSPORTER: inhibition of E1S uptake (E1S: 40 uM, AZT: 1000 uM) in Xenopus laevis oocytes; assay type: functional, cell-based; conditions: oocyte
[16] = substrate: Nc1ccc(C(=O)NCC(=O)O)cc1; experiment: as §1; assay type: functional, cell-based, Oocyte
[17] = substrate: C[C@]12CC[C@@H]3c4ccc(OS(=O)(=O)O)cc4CC[C@H]3[C@@H]1CCC2=O; experiment: as §1; assay type: functional, cell-based, Oocyte

For `O=S(=O)(O)c1cc(N=C=S)ccc1/C=C/c1ccc(NC=S)cc1S(=O)(=O)O`, the Activity [1] was “inhibitor [(at a rough estimate) 10 % of control]”.

With `C[C@@H]1Cc2c(Cl)cc(C(=O)N[C@@H](Cc3ccccc3)C(=O)O)c(O)c2C(=O)O1` [3R14S-OCHRATOXIN A] the Km [2] was 0.739 µM.

In the case of `CCCCNc1cc(C(=O)O)cc(S(N)(=O)=O)c1Oc1ccccc1` [BUMETANIDE], the Activity [3] is reported as “inhibitor [(at a rough estimate) 20 % of control]”.

With `CCN1CCN(C(=O)N[C@@H](C(=O)N[C@@H]2C(=O)N3C(C(=O)O)=C(CSc4nnnn4C)CS[C@H]23)c2ccc(O)cc2)C(=O)C1=O` [CEFOPERAZONE] the Activity [4] was “inhibitor [(at a rough estimate) 40 % of control]”.

In the case of `CN/C(=N/CCSCc1nc[nH]c1C)NC#N` [CIMETIDINE], the Activity [5] is reported as “substrate [+]”.

`NS(=O)(=O)c1cc(C(=O)O)c(NCc2ccco2)cc1Cl` [FUROSEMIDE] was tested, and the Activity [6] was “inhibitor [(at a rough estimate) 10 % of control]”.

`CC1(C)C(/C=C/C=C/C=C/C=C2/N(CCCCS(=O)(=O)[O-])c3ccc4ccccc4c3C2(C)C)=[N+](CCCCS(=O)(=O)[O-])c2ccc3ccccc3c21.[Na+]` [INDOCYANINE GREEN] was tested, and the Activity [7] was “inhibitor [(at a rough estimate) 20 % of control]”.

In the case of `COc1ccc2c(c1)c(CC(=O)O)c(C)n2C(=O)c1ccc(Cl)cc1` [INDOMETHACIN], the Activity [8] is reported as “is not an inhibitor [-]”.

For `COc1ccc2[nH]cc(CCNC(C)=O)c2c1` [MELATONIN], the Activity [9] was “inhibitor [(at a rough estimate) 10 % of control]”.

With `CN(Cc1cnc2nc(N)nc(N)c2n1)c1ccc(C(=O)N[C@@H](CCC(=O)O)C(=O)O)cc1` [METHOTREXATE] the Activity [10] was “inhibitor [(at a rough estimate) 35 % of control]”.

In the case of `C[C@@H]1O[C@@H](O[C@H]2C[C@@H](O)[C@]3(CO)[C@H]4[C@H](O)C[C@]5(C)[C@@H](C6=CC(=O)OC6)CC[C@]5(O)[C@@H]4CC[C@]3(O)C2)[C@H](O)[C@H](O)[C@H]1O` [OUABAIN], the Activity [11] is reported as “is not an inhibitor [-]”.

With `CN1C(C(=O)Nc2ccccn2)=C(O)c2ccccc2S1(=O)=O` [PIROXICAM] the Activity [12] was “inhibitor [(at a rough estimate) 10 % of control]”.

For `CCCN(CCC)S(=O)(=O)c1ccc(C(=O)O)cc1` [PROBENECID], the Activity [13] was “inhibitor [(at a rough estimate) 15 % of control]”.

With `O=C1OC(c2ccc(O)c(S(=O)(=O)[O-])c2)(c2ccc(O)c(S(=O)(=O)[O-])c2)c2c(Br)c(Br)c(Br)c(Br)c21.[Na+].[Na+]` [SULFOBROMOPHTHALEIN SODIUM] the Activity [14] was “inhibitor [(at a rough estimate) 5 % of control]”.

For `Cc1cn([C@H]2C[C@H](N=[N+]=[N-])[C@@H](CO)O2)c(=O)[nH]c1=O` [ZIDOVUDINE], the Activity [15] was “inhibitor [(at a rough estimate) 20 % of control]”.

B1: Organic anion transporter 3 (Rattus norvegicus) (protein)
chain: T1 sequence (Q9R1U7 whole entry)
B1 gave a Km [16] of 64.7 µM and a Km [17] of 2.34 µM.
